Common to all, as to assay: PI3K enzyme inhibitory activity in the cell free assay (ADP-Glo Kinase Assay)
What all share (type): biochemical
On the technique in general: ADP-Glo turns the ADP formed in a reaction into a luminescent signal.

One assay concerns the target T1, PI3Kα (Homo sapiens, UniProt P42336).
T1 construct: purchased Millipore Ltd (Billerica, Mass.)
The following applies: human recombinant PI3Kα, ATP 50 μM; read-out: PI3K alpha inhibition.

In the next assay the target is T2, PI3Kβ (Homo sapiens, UniProt P42338).
T2 construct: purchased Millipore Ltd (Billerica, Mass.)
The following applies: human recombinant PI3Kβ, ATP 100 μM; read-out: PI3K beta inhibition.

Another assay has as its target T3, PI3Kγ (Homo sapiens, UniProt P48736).
T3 construct: purchased Millipore Ltd (Billerica, Mass.)
The following applies: human recombinant PI3Kγ, ATP 30 μM; read-out: PI3K gamma inhibition.

The target in another assay is T4, PI3Kδ (Homo sapiens, UniProt O00329).
T4 construct: purchased Millipore Ltd (Billerica, Mass.)
T4 sequence (O00329 1-1044): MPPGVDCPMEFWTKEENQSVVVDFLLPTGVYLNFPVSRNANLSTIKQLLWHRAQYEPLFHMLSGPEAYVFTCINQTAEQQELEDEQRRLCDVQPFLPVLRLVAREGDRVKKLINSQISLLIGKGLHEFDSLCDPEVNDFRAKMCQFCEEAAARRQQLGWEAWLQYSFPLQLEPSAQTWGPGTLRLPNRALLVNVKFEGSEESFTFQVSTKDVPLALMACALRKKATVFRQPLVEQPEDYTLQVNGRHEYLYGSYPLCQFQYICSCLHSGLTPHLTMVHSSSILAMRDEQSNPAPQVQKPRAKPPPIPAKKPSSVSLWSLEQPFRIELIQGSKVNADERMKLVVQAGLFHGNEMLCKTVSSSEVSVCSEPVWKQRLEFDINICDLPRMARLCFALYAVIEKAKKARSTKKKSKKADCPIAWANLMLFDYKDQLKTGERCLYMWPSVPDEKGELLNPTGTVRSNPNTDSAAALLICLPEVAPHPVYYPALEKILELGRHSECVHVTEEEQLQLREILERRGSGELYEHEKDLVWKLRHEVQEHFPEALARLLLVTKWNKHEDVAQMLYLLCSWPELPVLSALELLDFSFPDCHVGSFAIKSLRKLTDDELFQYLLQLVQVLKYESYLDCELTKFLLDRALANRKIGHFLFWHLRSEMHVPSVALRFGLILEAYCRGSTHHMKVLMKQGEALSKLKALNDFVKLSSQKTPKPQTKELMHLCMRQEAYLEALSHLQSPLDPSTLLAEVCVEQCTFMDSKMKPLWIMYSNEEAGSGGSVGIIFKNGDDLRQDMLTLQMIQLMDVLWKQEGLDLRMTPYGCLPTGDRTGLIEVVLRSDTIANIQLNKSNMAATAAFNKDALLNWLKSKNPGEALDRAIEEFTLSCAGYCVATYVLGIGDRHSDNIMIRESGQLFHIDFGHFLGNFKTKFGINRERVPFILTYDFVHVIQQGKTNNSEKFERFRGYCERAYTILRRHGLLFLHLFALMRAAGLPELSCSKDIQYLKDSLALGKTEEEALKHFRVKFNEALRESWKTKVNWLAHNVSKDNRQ
The following applies: human recombinant PI3Kδ, ATP 80 μM; read-out: PI3K delta inhibition.

Results on 14 molecules are retold here after patent US9321776B2, “Isochromene derivatives as phoshoinositide 3-kinases inhibitors” (CHIESI FARMACEUTICI S.p.A., priority 2013, dated 2016).

Structures can show the parent of a compound that is named as a salt.

T1 sequence (P42336 whole entry): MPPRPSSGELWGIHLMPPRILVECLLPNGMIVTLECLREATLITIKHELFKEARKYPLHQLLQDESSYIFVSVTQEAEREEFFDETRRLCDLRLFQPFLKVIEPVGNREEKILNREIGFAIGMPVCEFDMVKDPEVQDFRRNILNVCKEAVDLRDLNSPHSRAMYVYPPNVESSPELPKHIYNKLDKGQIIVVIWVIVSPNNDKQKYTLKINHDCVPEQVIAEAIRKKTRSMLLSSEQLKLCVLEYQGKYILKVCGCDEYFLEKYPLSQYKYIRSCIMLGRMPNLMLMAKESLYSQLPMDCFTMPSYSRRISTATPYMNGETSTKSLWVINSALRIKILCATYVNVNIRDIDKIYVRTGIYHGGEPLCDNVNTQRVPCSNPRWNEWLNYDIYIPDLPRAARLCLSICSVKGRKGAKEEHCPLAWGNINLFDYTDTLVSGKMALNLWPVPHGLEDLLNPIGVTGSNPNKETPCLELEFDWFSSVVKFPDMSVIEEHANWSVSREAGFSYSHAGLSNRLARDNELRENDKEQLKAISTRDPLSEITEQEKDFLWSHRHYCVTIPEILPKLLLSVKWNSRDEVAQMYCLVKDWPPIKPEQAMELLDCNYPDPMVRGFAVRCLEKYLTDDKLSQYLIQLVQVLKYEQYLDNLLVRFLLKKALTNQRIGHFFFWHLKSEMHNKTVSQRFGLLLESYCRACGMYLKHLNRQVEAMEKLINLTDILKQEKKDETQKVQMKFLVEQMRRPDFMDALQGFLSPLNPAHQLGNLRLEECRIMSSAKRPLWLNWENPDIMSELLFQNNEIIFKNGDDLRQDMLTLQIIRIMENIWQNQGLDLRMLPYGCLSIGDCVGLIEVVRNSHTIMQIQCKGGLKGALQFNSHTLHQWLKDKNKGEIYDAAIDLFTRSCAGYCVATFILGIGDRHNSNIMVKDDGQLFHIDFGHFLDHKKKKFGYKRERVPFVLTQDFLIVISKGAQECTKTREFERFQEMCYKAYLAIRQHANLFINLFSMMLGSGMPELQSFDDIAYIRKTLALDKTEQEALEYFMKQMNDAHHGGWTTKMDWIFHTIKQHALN
T2 sequence (P42338 whole entry): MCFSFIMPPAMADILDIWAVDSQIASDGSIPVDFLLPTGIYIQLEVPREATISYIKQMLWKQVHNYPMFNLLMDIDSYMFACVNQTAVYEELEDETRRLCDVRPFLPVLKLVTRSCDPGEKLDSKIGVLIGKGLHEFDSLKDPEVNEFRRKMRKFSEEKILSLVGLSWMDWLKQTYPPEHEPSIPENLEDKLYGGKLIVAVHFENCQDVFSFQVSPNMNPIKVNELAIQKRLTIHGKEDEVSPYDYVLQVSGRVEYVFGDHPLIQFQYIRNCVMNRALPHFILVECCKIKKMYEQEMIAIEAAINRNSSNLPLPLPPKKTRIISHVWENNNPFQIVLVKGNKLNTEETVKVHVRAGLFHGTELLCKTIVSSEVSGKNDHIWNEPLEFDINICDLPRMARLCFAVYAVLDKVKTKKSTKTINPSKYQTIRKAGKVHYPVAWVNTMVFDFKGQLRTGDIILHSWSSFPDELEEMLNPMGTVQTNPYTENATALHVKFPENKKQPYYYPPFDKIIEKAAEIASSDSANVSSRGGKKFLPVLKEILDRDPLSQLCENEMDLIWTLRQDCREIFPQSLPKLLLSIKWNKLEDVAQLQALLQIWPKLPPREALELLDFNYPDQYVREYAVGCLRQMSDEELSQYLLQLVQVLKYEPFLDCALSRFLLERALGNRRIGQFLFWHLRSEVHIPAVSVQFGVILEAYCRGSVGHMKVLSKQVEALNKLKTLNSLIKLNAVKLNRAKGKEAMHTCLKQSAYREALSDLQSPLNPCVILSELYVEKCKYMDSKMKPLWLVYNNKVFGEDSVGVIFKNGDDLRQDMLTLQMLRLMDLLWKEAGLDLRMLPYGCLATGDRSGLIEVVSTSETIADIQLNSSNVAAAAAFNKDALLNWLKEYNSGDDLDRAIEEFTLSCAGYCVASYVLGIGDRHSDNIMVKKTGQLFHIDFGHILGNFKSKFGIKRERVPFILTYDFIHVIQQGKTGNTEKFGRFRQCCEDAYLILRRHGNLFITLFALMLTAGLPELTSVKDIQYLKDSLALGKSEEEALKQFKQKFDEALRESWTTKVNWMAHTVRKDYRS
T3 sequence (P48736 whole entry): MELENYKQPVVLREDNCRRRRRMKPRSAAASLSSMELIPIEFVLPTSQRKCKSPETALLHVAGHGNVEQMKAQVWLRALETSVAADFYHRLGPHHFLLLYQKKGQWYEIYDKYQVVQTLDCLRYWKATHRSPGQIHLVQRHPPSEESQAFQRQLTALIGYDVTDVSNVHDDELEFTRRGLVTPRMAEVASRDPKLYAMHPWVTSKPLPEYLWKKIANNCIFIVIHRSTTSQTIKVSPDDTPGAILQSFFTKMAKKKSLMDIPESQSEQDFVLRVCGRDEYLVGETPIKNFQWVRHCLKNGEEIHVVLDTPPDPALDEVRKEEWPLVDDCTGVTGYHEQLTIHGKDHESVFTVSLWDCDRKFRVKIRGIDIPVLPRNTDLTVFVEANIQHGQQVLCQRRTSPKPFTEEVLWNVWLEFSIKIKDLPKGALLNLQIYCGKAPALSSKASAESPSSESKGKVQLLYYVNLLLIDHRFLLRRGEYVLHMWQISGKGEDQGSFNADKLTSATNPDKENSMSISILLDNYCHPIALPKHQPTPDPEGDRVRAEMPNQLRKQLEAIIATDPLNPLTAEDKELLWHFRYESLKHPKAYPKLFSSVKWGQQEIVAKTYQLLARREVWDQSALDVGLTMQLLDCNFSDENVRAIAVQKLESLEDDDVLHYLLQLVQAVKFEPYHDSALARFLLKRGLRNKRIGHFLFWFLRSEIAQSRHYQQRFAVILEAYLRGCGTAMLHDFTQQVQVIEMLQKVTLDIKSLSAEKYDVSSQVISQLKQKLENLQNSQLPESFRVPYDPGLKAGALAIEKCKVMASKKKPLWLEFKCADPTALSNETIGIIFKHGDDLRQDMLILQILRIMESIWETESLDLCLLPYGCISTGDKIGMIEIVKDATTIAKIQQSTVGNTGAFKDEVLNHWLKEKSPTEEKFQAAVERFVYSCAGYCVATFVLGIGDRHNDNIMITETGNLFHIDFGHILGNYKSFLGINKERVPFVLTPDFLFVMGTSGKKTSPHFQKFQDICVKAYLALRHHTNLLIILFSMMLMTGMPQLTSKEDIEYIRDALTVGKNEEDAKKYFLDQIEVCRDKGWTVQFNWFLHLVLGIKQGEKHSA

Turning to `CC(c1oc(=O)c2ccccc2c1-c1ccc(CN2CCCCC2)s1)n1nc(-c2cc(O)cc(F)c2)c2c(N)ncnc21` (single isomer, unassigned) [Example 68b, 3-(1-(4-amino-3-(3-fluoro-5-hydroxyphenyl)-1H-pyrazolo[3,4-d]pyrimidin-1-yl)ethyl)-4-(5-(piperidin-1-ylmethyl)thiophen-2-yl)-1H-isochromen-1-one hydrochloride single enantiomers], the IC50 is 10 to 1000 nM at PI3Kα, 10 to 1000 nM at PI3Kβ, 10 to 1000 nM at PI3Kγ and < 10 nM on PI3Kδ.

As to `CC(c1oc(=O)c2ccccc2c1-c1ccc(CN2CCN(CCO)CC2)s1)n1nc(-c2cc(O)cc(F)c2)c2c(N)ncnc21` (single isomer, unassigned) [Example 76b, 3-(1-(4-amino-3-(3-fluoro-5-hydroxyphenyl)-1H-pyrazolo[3,4-d]pyrimidin-1-yl)ethyl)-4-(5-((4-(2-hydroxyethyl)piperazin-1-yl)methyl)thiophen-2-yl)-1H-isochromen-1-one hydrochloride], the IC50 is 10 to 1000 nM at PI3Kα, 10 to 1000 nM at PI3Kβ, 10 to 1000 nM on PI3Kγ and < 10 nM on PI3Kδ.

With `CC(c1oc(=O)c2ccccc2c1-c1cccc(CCCN(C)C)c1)n1nc(-c2cc(O)cc(F)c2)c2c(N)ncnc21` (single isomer, unassigned) [Example 137b, 3-(1-(4-amino-3-(3-fluoro-5-hydroxyphenyl)-1H-pyrazolo[3,4-d]pyrimidin-1-yl)ethyl)-4-(3-(3-(dimethylamino)propyl)phenyl)-1H-isochromen-1-one single enantiomers], the IC50 at PI3Kα is > 1000 nM; at PI3Kβ, 10 to 1000 nM; on PI3Kγ it was 10 to 1000 nM; on PI3Kδ, < 10 nM.

As for `CC(c1oc(=O)c2ccccc2c1-c1ccc(CCCN(C)C)cc1)n1nc(-c2cc(O)cc(F)c2)c2c(N)ncnc21` (single isomer, unassigned) [Example 138b, 3-(1-(4-amino-3-(3-fluoro-5-hydroxyphenyl)-1H-pyrazolo[3,4-d]pyrimidin-1-yl)ethyl)-4-(4-(3-(dimethylamino)propyl)phenyl)-1H-isochromen-1-one single enantiomers], the IC50 was > 1000 nM on PI3Kα, > 1000 nM at PI3Kβ, 10 to 1000 nM at PI3Kγ and < 10 nM at PI3Kδ.

For the molecule `CC(c1oc(=O)c2ccccc2c1-c1cncs1)n1nc(-c2cc(O)cc(F)c2)c2c(N)ncnc21` (single isomer, unassigned) [Example 167a, 3-(1-(4-amino-3-(3-fluoro-5-hydroxyphenyl)-1H-pyrazolo[3,4-d]pyrimidin-1-yl)ethyl)-4-(thiazol-5-yl)-1H-isochromen-1-one single enantiomer], the IC50 on PI3Kα was 10 to 1000 nM; on PI3Kβ it was 10 to 1000 nM; on PI3Kγ, 10 to 1000 nM; on PI3Kδ, < 10 nM.

As for `CC(c1oc(=O)c2ccccc2c1-c1cncs1)n1nc(-c2cc(O)cc(F)c2)c2c(N)ncnc21` (single isomer, unassigned) [Example 167b, 3-(1-(4-amino-3-(3-fluoro-5-hydroxyphenyl)-1H-pyrazolo[3,4-d]pyrimidin-1-yl)ethyl)-4-(thiazol-5-yl)-1H-isochromen-1-one single enantiomer], the IC50 was > 1000 nM on PI3Kα, 10 to 1000 nM on PI3Kβ, 10 to 1000 nM on PI3Kγ and < 10 nM on PI3Kδ.

For `CC(c1oc(=O)c2ccccc2c1C1=CCCN(Cc2ccccc2)C1)n1nc(-c2cc(O)cc(F)c2)c2c(N)ncnc21` (single isomer, unassigned) [Example 169a, 3-(1-(4-amino-3-(3-fluoro-5-hydroxyphenyl)-1H-pyrazolo[3,4-d]pyrimidin-1-yl)ethyl)-4-(1-benzyl-1,2,5,6-tetrahydropyridin-3-yl)-1H-isochromen-1-one hydrochloride single enantiomers], the IC50 at PI3Kα was > 1000 nM; on PI3Kβ, 10 to 1000 nM; on PI3Kγ it was 10 to 1000 nM; at PI3Kδ, < 10 nM.

`CC(Nc1ncnc2[nH]cnc12)c1oc(=O)c2ccccc2c1C1=CCNCC1` (centres unmarked) [Example 23, 3-(1-(9H-Purin-6-ylamino)ethyl)-4-(1,2,3,6-tetrahydropyridin-4-yl)-1H-isochromen-1-one hydrochloride]: the IC50 on PI3Kα is > 1000 nM; on PI3Kβ, 10 to 1000 nM; on PI3Kγ, > 1000 nM; on PI3Kδ, < 10 nM.

As to `Cc1cccc(-c2c(C(C)n3nc(-c4cc(O)cc(F)c4)c4c(N)ncnc43)oc(=O)c3ccccc23)c1` (centres unmarked) [Example 41, 3-(1-(4-Amino-3-(3-fluoro-5-hydroxyphenyl)-1H-pyrazolo[3,4-d]pyrimidin-1-yl)ethyl)-4-m-tolyl-1H-isochromen-1-one], the IC50 is 10 to 1000 nM on PI3Kα, 10 to 1000 nM on PI3Kβ, 10 to 1000 nM on PI3Kγ and < 10 nM at PI3Kδ.

Turning to `CC(Nc1ncnc2[nH]cnc12)c1oc(=O)c2ccccc2c1C1=CCN(C)CC1` (centres unmarked) [Example 45, 3-(1-(9H-purin-6-ylamino)ethyl)-4-(1-methyl-1,2,3,6-tetrahydropyridin-4-yl)-1H-isochromen-1-one hydrochloride], the IC50 at PI3Kα is > 1000 nM; at PI3Kβ it was > 1000 nM; at PI3Kγ it was > 1000 nM; on PI3Kδ, < 10 nM.

In the case of `CC(Nc1ncnc2[nH]cnc12)c1oc(=O)c2ccccc2c1-c1ccc(CN2CCOCC2)cc1` (centres unmarked) [Example 47, 3-(1-(9H-purin-6-ylamino)ethyl)-4-(4-(morpholinomethyl)phenyl)-1H-isochromen-1-one hydrochloride], the IC50 on PI3Kα is > 1000 nM; on PI3Kβ it was > 1000 nM; on PI3Kγ it was 10 to 1000 nM; at PI3Kδ it was 10 to 1000 nM.

Turning to `CC(c1oc(=O)c2ccccc2c1-c1ccccc1)n1nc(-c2cnc(N)s2)c2c(N)ncnc21` (centres unmarked) [Example 59, 3-(1-(4-amino-3-(2-aminothiazol-5-yl)-1H-pyrazolo[3,4-d]pyrimidin-1-yl)ethyl)-4-phenyl-1H-isochromen-1-one hydrochloride], the IC50 at PI3Kα was 10 to 1000 nM; at PI3Kβ it was 10 to 1000 nM; at PI3Kγ it was 10 to 1000 nM; at PI3Kδ, < 10 nM.

With `COc1ccc(-c2nn(C(C)c3oc(=O)c4ccccc4c3-c3ccccc3)c3ncnc(N)c23)cn1` (centres unmarked) [Example 60, 3-(1-(4-amino-3-(6-methoxypyridin-3-yl)-1H-pyrazolo[3,4-d]pyrimidin-1-yl)ethyl)-4-phenyl-1H-isochromen-1-one], the IC50 at PI3Kα is 10 to 1000 nM; on PI3Kβ it was 10 to 1000 nM; on PI3Kγ it was 10 to 1000 nM; on PI3Kδ, < 10 nM.

Turning to `CC(=O)Nc1ncc(-c2nn(C(C)c3oc(=O)c4ccccc4c3-c3ccccc3)c3ncnc(N)c23)s1` (centres unmarked) [Example 62, N-(5-(4-amino-1-(1-(1-oxo-4-phenyl-1H-isochromen-3-yl)ethyl)-1H-pyrazolo[3,4-d]pyrimidin-3-yl)thiazol-2-yl)acetamide], the IC50 on PI3Kα was 10 to 1000 nM; at PI3Kβ, 10 to 1000 nM; on PI3Kγ, 10 to 1000 nM; on PI3Kδ it was < 10 nM.
